± gives the expanded uncertainty stated by the source.
Experiment: xn = mol fraction of the nth substance listed
Conditions: 100 kPa, Liquid; for viscosity: Concentric cylinders viscometry; for mass density: Vibrating tube method

CCOC(=O)CCC(=O)OCC [diethyl butanedioate] + CCCO
Conditions | mass density [kg/m3] | viscosity [mPa·s]
288.15 K, x1 = 0.1 | 854.4 ± 0.81 | 2.13 ± 0.019
288.15 K, x1 = 0.2 | 891.88 ± 0.81 | 2.009 ± 0.018
288.15 K, x1 = 0.2999 | 922.67 ± 0.81 | 2.025 ± 0.018
288.15 K, x1 = 0.3998 | 948.47 ± 0.81 | 2.105 ± 0.019
288.15 K, x1 = 0.4999 | 970.46 ± 0.81 | 2.214 ± 0.02
288.15 K, x1 = 0.6001 | 989.43 ± 0.81 | 2.341 ± 0.022
288.15 K, x1 = 0.7001 | 1005.92 ± 0.82 | 2.496 ± 0.023
288.15 K, x1 = 0.8002 | 1020.45 ± 0.82 | 2.69 ± 0.025
288.15 K, x1 = 0.8997 | 1033.27 ± 0.83 | 2.926 ± 0.028
288.15 K, x1 = 1 | 1044.83 ± 0.84 | 3.195 ± 0.03
293.15 K, x1 = 0.1 | 850.08 ± 0.81 | 1.889 ± 0.017
293.15 K, x1 = 0.2 | 887.33 ± 0.81 | 1.788 ± 0.016
293.15 K, x1 = 0.2999 | 917.95 ± 0.81 | 1.804 ± 0.016
293.15 K, x1 = 0.3998 | 943.61 ± 0.81 | 1.875 ± 0.017
293.15 K, x1 = 0.4999 | 965.5 ± 0.81 | 1.971 ± 0.018
293.15 K, x1 = 0.6001 | 984.4 ± 0.81 | 2.082 ± 0.019
293.15 K, x1 = 0.7001 | 1000.83 ± 0.82 | 2.215 ± 0.021
293.15 K, x1 = 0.8002 | 1015.31 ± 0.82 | 2.379 ± 0.022
293.15 K, x1 = 0.8997 | 1028.1 ± 0.83 | 2.578 ± 0.024
293.15 K, x1 = 1 | 1039.63 ± 0.83 | 2.807 ± 0.027
298.15 K, x1 = 0.1 | 845.75 ± 0.81 | 1.69 ± 0.015
298.15 K, x1 = 0.2 | 882.77 ± 0.81 | 1.608 ± 0.015
298.15 K, x1 = 0.2999 | 913.21 ± 0.81 | 1.622 ± 0.015
298.15 K, x1 = 0.3998 | 938.75 ± 0.81 | 1.684 ± 0.016
298.15 K, x1 = 0.4999 | 960.54 ± 0.81 | 1.767 ± 0.016
298.15 K, x1 = 0.6001 | 979.36 ± 0.81 | 1.866 ± 0.017
298.15 K, x1 = 0.7001 | 995.74 ± 0.82 | 1.983 ± 0.019
298.15 K, x1 = 0.8002 | 1010.18 ± 0.82 | 2.126 ± 0.02
298.15 K, x1 = 0.8997 | 1022.93 ± 0.83 | 2.297 ± 0.022
298.15 K, x1 = 1 | 1034.44 ± 0.83 | 2.491 ± 0.024
303.15 K, x1 = 0.1 | 841.4 ± 0.81 | 1.519 ± 0.014
303.15 K, x1 = 0.2 | 878.18 ± 0.81 | 1.452 ± 0.013
303.15 K, x1 = 0.2999 | 908.46 ± 0.81 | 1.465 ± 0.014
303.15 K, x1 = 0.3998 | 933.87 ± 0.81 | 1.518 ± 0.014
303.15 K, x1 = 0.4999 | 955.57 ± 0.81 | 1.593 ± 0.015
303.15 K, x1 = 0.6001 | 974.32 ± 0.81 | 1.682 ± 0.016
303.15 K, x1 = 0.7001 | 990.64 ± 0.82 | 1.787 ± 0.017
303.15 K, x1 = 0.8002 | 1005.04 ± 0.82 | 1.912 ± 0.018
303.15 K, x1 = 0.8997 | 1017.76 ± 0.83 | 2.061 ± 0.02
303.15 K, x1 = 1 | 1029.25 ± 0.83 | 2.229 ± 0.022
308.15 K, x1 = 0.1 | 837.02 ± 0.81 | 1.371 ± 0.013
308.15 K, x1 = 0.2 | 873.57 ± 0.81 | 1.316 ± 0.012
308.15 K, x1 = 0.2999 | 903.69 ± 0.81 | 1.328 ± 0.013
308.15 K, x1 = 0.3998 | 928.98 ± 0.81 | 1.376 ± 0.013
308.15 K, x1 = 0.4999 | 950.59 ± 0.81 | 1.444 ± 0.014
308.15 K, x1 = 0.6001 | 969.27 ± 0.81 | 1.524 ± 0.015
308.15 K, x1 = 0.7001 | 985.54 ± 0.82 | 1.619 ± 0.016
308.15 K, x1 = 0.8002 | 999.9 ± 0.82 | 1.731 ± 0.017
308.15 K, x1 = 0.8997 | 1012.6 ± 0.83 | 1.861 ± 0.018
308.15 K, x1 = 1 | 1024.08 ± 0.83 | 2.008 ± 0.02
313.15 K, x1 = 0.1 | 832.6 ± 0.81 | 1.248 ± 0.012
313.15 K, x1 = 0.2 | 868.94 ± 0.81 | 1.209 ± 0.011
313.15 K, x1 = 0.2999 | 898.89 ± 0.81 | 1.222 ± 0.012
313.15 K, x1 = 0.3998 | 924.07 ± 0.81 | 1.265 ± 0.012
313.15 K, x1 = 0.4999 | 945.59 ± 0.81 | 1.325 ± 0.013
313.15 K, x1 = 0.6001 | 964.21 ± 0.81 | 1.398 ± 0.013
313.15 K, x1 = 0.7001 | 980.44 ± 0.82 | 1.484 ± 0.014
313.15 K, x1 = 0.8002 | 994.77 ± 0.82 | 1.586 ± 0.015
313.15 K, x1 = 0.8997 | 1007.44 ± 0.82 | 1.7 ± 0.017
313.15 K, x1 = 1 | 1018.9 ± 0.83 | 1.821 ± 0.018
318.15 K, x1 = 0.1 | 828.14 ± 0.81 | 1.128 ± 0.011
318.15 K, x1 = 0.2 | 864.27 ± 0.81 | 1.096 ± 0.011
318.15 K, x1 = 0.2999 | 894.07 ± 0.81 | 1.11 ± 0.011
318.15 K, x1 = 0.3998 | 919.14 ± 0.81 | 1.15 ± 0.011
318.15 K, x1 = 0.4999 | 940.58 ± 0.81 | 1.206 ± 0.012
318.15 K, x1 = 0.6001 | 959.14 ± 0.81 | 1.274 ± 0.013
318.15 K, x1 = 0.7001 | 975.33 ± 0.82 | 1.352 ± 0.013
318.15 K, x1 = 0.8002 | 989.62 ± 0.82 | 1.443 ± 0.014
318.15 K, x1 = 0.8997 | 1002.28 ± 0.82 | 1.545 ± 0.015
318.15 K, x1 = 1 | 1013.72 ± 0.83 | 1.66 ± 0.017
323.15 K, x1 = 0.1 | 823.65 ± 0.81 | 1.029 ± 0.01
323.15 K, x1 = 0.2 | 859.57 ± 0.81 | 1.006 ± 0.01
323.15 K, x1 = 0.2999 | 889.22 ± 0.81 | 1.025 ± 0.01
323.15 K, x1 = 0.3998 | 914.18 ± 0.81 | 1.065 ± 0.011
323.15 K, x1 = 0.4999 | 935.55 ± 0.81 | 1.118 ± 0.011
323.15 K, x1 = 0.6001 | 954.05 ± 0.81 | 1.18 ± 0.012
323.15 K, x1 = 0.7001 | 970.21 ± 0.82 | 1.251 ± 0.013
323.15 K, x1 = 0.8002 | 984.48 ± 0.82 | 1.334 ± 0.013
323.15 K, x1 = 0.8997 | 997.12 ± 0.82 | 1.425 ± 0.014
323.15 K, x1 = 1 | 1008.55 ± 0.83 | 1.523 ± 0.015

Reference: the NIST ThermoML archive (doi:10.1016/j.jct.2016.06.016)
